Tested on: c-myc in 22RV-1 cells
Assay: Human c-myc ELISA assay
Format: cell-based
Conditions: Homo sapiens; for Emax: 22Rv1, 18 h, read-out: Degradation of BRD4: Maximum inhibition (%) c-Myc ELISA in 22RV1 cells; for DC50: 22Rv1, read-out: Degradation of BRD4: DC50 (uM) c-Myc ELISA in 22RV1 cells
Outline: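 22RV-1 cells treated 18 h with 8-point 1:3 compound dilutions (final top 300 nM or 1 μM, 0.1% DMSO). Cells lysed in RIPA buffer with protease/phosphatase inhibitors, and c-myc protein in cleared lysate quantified by ELISA against a standard curve. DC50 reported for c-myc suppression.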

Structure (SMILES)	DC50	Emax
Cc1ncsc1-c1ccc(CNC(=O)[C@@H]2C[C@@H](O)CN2C(=O)[C@@H](NC(=O)COCCCCn2cc(-c3ccc([C@@H](C)NC(=O)C[C@@H]4N=C(c5ccc(Cl)cc5)c5c(sc(C)c5C)-n5c(C)nnc54)cc3)cn2)C(C)(C)C)cc1 [Example 33, (2S,4R)-1-[(2S)-2-{2-[4-(4-{4-[(1R)-1-{2-[(9S)-7-(4-chlorophenyl)-4,5,13-trimethyl-3-thia-1,8,11,12-tetraazatricyclo[8.3.0.0^2,^6]trideca-2(6),4,7,10,12-pentaen-9-yl]acetamido}ethyl]phenyl}-1H-pyrazol-1-yl)butoxy]acetamido}-3,3-dimethylbutanoyl]-4-hydroxy-N-{[4-(4-methyl-1,3-thiazol-5-yl)phenyl]methyl}pyrrolidine-2-carboxamide]	0.01 to 0.1 µM	100%
Cc1ncsc1-c1ccc([C@H](C)NC(=O)[C@@H]2C[C@@H](O)CN2C(=O)[C@@H](NC(=O)COC[C@H](O)CN2CCN(C(=O)C[C@@H]3N=C(c4ccc(Cl)cc4)c4c(sc(C)c4C)-n4c(C)nnc43)CC2)C(C)(C)C)cc1 [Example 328]	0.1 to 1 µM	61%
Cc1ncsc1-c1ccc(CNC(=O)[C@@H]2C[C@@H](O)CN2C(=O)[C@@H](NC(=O)COCCOCCOCCOc2ccc3c(c2)c2c(C(N)=O)cc(-c4c(C)noc4C)cc2n3Cc2ccccc2)C(C)(C)C)cc1 [Example 83]	0.01 to 0.1 µM	98%
Cc1ncsc1-c1ccc(CNC(=O)C2C[C@@H](O)CN2C(=O)[C@@H](NC(=O)COc2ccccc2OCCCNC(=O)C[C@@H]2N=C(c3ccc(Cl)cc3)c3c(sc(C)c3C)-n3c(C)nnc32)C(C)(C)C)cc1 (stereo partly drawn) [Example 107]	0.01 to 0.1 µM	86.6%
Cc1ncsc1-c1ccc(CNC(=O)[C@@H]2C[C@@H](O)CN2C(=O)[C@@H](NC(=O)CCc2ccc(OCCNC(=O)C[C@@H]3N=C(c4ccc(Cl)cc4)c4c(sc(C)c4C)-n4c(C)nnc43)nc2)C(C)(C)C)cc1 [Example 139, (2S,4R)-1-[(2S)-2-{3-[6-(2-{2-[(9S)-7-(4-chlorophenyl)-4,5,13-trimethyl-3-thia-1,8,11,12-tetraazatricyclo[8.3.0.0^2,^6]trideca-2(6),4,7,10,12-pentaen-n-9-yl]acetamido}ethoxy)pyridin-3-yl]propanamido}-3,3-dimethylbutanoyl]-4-hydroxy-N-{[4-(4-methyl-1,3-thiazol-5-yl)phenyl]methyl}pyrrolidine-2-carboxamide]	< 0.01 µM	98%
Cc1ncsc1-c1ccc(CNC(=O)[C@@H]2C[C@@H](O)CN2C(=O)[C@@H](NC(=O)COCCCCNC(=O)C[C@@H]2N=C(c3ccc(Cl)cc3)c3c(sc(C)c3C)-n3c(C)nnc32)C(C)(C)C)cc1 [Example 45, (2S,4R)-1-[(2S)-2-[2-(4-{2-[(9S)-7-(4-chlorophenyl)-4,5,13-trimethyl-3-thia-1,8,11,12-tetraazatricyclo[8.3.0.0^2,^6]trideca-2(6),4,7,10,12-pentaen-9-yl]acetamido}butoxy)acetamido]-3,3-dimethylbutanoyl]-4-hydroxy-N-{[4-(4-methyl-1,3-thiazol-5-yl)phenyl]methyl}pyrrolidine-2-carboxamide]	0.1 to 1 µM	100%
CCc1ccc(C2=N[C@@H](CC(=O)Nc3ccc(OCCCOCCCOCC(=O)N[C@H](C(=O)N4C[C@H](O)C[C@H]4C(=O)NCc4ccc(-c5scnc5C)cc4)C(C)(C)C)cc3)c3nnc(C)n3-c3sc(C)c(C)c32)cc1 [Example 64, (2S,4R)-1-[(2S)-2-(2-{3-[3-(4-{2-[(9S)-7-(4-ethylphenyl)-4,5,13-trimethyl-3-thia-1,8,11,12-tetraazatricyclo[8.3.0.0^2,^6]trideca-2(6),4,7,10,12-pentaen-9-yl]acetamido}phenoxy)propoxy]propoxy}acetamido)-3,3-dimethylbutanoyl]-4-hydroxy-N-{[4-(4-methyl-1,3-thiazol-5-yl)phenyl]methyl}pyrrolidine-2-carboxamide]	0.01 to 0.1 µM	96.5%
Cc1ncsc1-c1ccc([C@H](C)NC(=O)[C@@H]2C[C@@H](OC(=O)CCCN)CN2C(=O)[C@@H](NC(=O)c2cc3cc(O[C@H]4C[C@@H](NC(=O)C[C@@H]5N=C(c6ccc(Cl)cc6)c6c(sc(C)c6C)-n6c(C)nnc65)C4)ccc3o2)C(C)(C)C)cc1 [Example 344]	0.01 to 0.1 µM	95.9%
Cc1ncsc1-c1ccc([C@H](C)NC(=O)[C@@H]2C[C@@H](O)CN2C(=O)[C@@H](NC(=O)Cc2ccc(-c3cn(CCNC(=O)C[C@@H]4N=C(c5ccc(Cl)cc5)c5c(sc(C)c5C)-n5c(C)nnc54)cn3)cc2)C(C)(C)C)cc1 [Example 337]	< 0.01 µM	96.4%
Cc1noc(-c2ccc([C@H](C)NC(=O)[C@@H]3C[C@@H](O)CN3C(=O)[C@@H](NC(=O)Cc3ccc(O[C@H]4C[C@H](NC(=O)C[C@@H]5N=C(c6ccc(Cl)cc6)c6c(sc(C)c6C)-n6c(C)nnc65)C4)cc3)C(C)(C)C)cc2)n1 [Example 275]	0.1 to 1 µM	50.1%
Cc1sc2c(c1C)C(c1ccc(Cl)cc1)=N[C@@H](CC(=O)N[C@H]1C[C@@H](Oc3ccc4oc(C(=O)N[C@H](C(=O)N5C[C@H](O)C[C@H]5C(=O)N[C@@H](C)c5ccc(-c6nccn6C)cc5)C(C)(C)C)cc4c3)C1)c1nnc(C)n1-2 [Example 262]	0.1 to 1 µM	55.5%
Cc1ncsc1-c1ccc([C@H](C)NC(=O)[C@@H]2C[C@@H](O)CN2C(=O)[C@@H](NC(=O)CO[C@H]2C[C@H](OCCNC(=O)C[C@@H]3N=C(c4ccc(Cl)cc4)c4c(sc(C)c4C)-n4c(C)nnc43)C2)C(C)(C)C)cc1 [Example 256]	< 0.01 µM	89.5%

Continued, in another order:

DC50	Structure (SMILES)	Emax
0.01 to 0.1 µM	Cc1ncsc1-c1ccc(CNC(=O)[C@@H]2C[C@@H](O)CN2C(=O)[C@@H](NC(=O)COCCCOCC#Cc2ccc([C@H](C)NC(=O)C[C@@H]3N=C(c4ccc(Cl)cc4)c4c(sc(C)c4C)-n4c(C)nnc43)cc2)C(C)(C)C)cc1 [Example 40]	97.5%
< 0.01 µM	Cc1ncsc1-c1ccc([C@H](C)NC(=O)[C@@H]2C[C@@H](O)CN2C(=O)[C@@H](NC(=O)CCc2ccc(O[C@H]3C[C@H](NC(=O)C[C@@H]4N=C(c5ccc(Cl)cc5)c5c(sc(C)c5C)-n5c(C)nnc54)C3)nc2)C(C)(C)C)cc1 [Example 172]	96%
0.1 to 1 µM	Cc1sc2c(c1C)C(c1ccc(Cl)cc1)=N[C@@H](CC(=O)N[C@H]1C[C@@H](Oc3cc(-c4cnn([C@H](C(=O)N5C[C@H](O)C[C@H]5C(=O)N[C@@H](C)c5ccc(-n6ccnc6C)cc5)C(C)C)c4)ccn3)C1)c1nnc(C)n1-2 [Example 289]	93.8%
0.1 to 1 µM	Cc1ncsc1-c1ccc(CNC(=O)[C@@H]2C[C@@H](O)CN2C(=O)[C@H](c2cc(OCCC(F)(F)CCNC(=O)C[C@@H]3N=C(c4ccc(Cl)cc4)c4c(sc(C)c4C)-n4c(C)nnc43)no2)C(C)C)cc1 [Example 296, (2S,4R)-1-[(2S)-2-{3-[(5-{2-[(9S)-7-(4-chlorophenyl)-4,5,13-trimethyl-3-thia-1,8,11,12-tetraazatricyclo[8.3.0.0^2,^6]trideca-2(6),4,7,10,12-pentaen-9-yl]acetamido}-3,3-difluoropentyl)oxy]-1,2-oxazol-5-yl}-3-methylbutanoyl]-4-hydroxy-N-{[4-(4-methyl-1,3-thiazol-5-yl)phenyl]methyl}pyrrolidine-2-carboxamide]	71.4%
> 1 µM	Cc1sc2c(c1C)C(c1ccc(Cl)cc1)=N[C@@H](CC(=O)N[C@H]1C[C@@H](Oc3cc(-c4cnn([C@@H](C(=O)N5C[C@H](O)C[C@H]5C(=O)N[C@@H](C)c5ccc(-c6nccn6C)cc5)C(C)C)c4)ccn3)C1)c1nnc(C)n1-2 [Example 292]	10%
0.01 to 0.1 µM	Cc1ncsc1-c1ccc(CNC(=O)[C@@H]2C[C@@H](O)CN2C(=O)[C@H](C(C)C)n2cc(-c3cccc(O[C@H](C)CNC(=O)C[C@@H]4N=C(c5ccc(Cl)cc5)c5c(sc(C)c5C)-n5c(C)nnc54)c3)cn2)cc1 [Example 232]	83%
0.1 to 1 µM	Cc1ncsc1-c1ccc(CNC(=O)[C@@H]2C[C@@H](O)CN2C(=O)[C@@H](NC(=O)Cc2ccc(N3CC[C@H](NC(=O)C[C@@H]4N=C(c5ccc(Cl)cc5)c5c(sc(C)c5C)-n5c(C)nnc54)C3)cn2)C(C)(C)C)cc1 [Example 93]	74.2%
0.01 to 0.1 µM	Cc1ncsc1-c1ccc(CNC(=O)[C@@H]2C[C@@H](O)CN2C(=O)[C@@H](c2cc(Oc3ccc(O[C@H]4C[C@@H](NC(=O)C[C@@H]5N=C(c6ccc(Cl)cc6)c6c(sc(C)c6C)-n6c(C)nnc65)C4)nc3)no2)C(C)C)cc1 [Example 325]	81.5%
> 1 µM	Cc1ncsc1-c1ccc(CNC(=O)[C@@H]2C[C@@H](O)CN2C(=O)[C@@H](C(C)C)n2cc(Oc3ccc(CNC(=O)C[C@@H]4N=C(c5ccc(Cl)cc5)c5c(sc(C)c5C)-n5c(C)nnc54)cc3)cn2)cc1 [Example 237]	13.8%
> 1 µM	Cc1ncsc1-c1ccc(CNC(=O)[C@@H]2C[C@@H](O)CN2C(=O)[C@@H](NC(=O)c2ccn(CCOCCNC(=O)C[C@@H]3N=C(c4ccc(Cl)cc4)c4c(sc(C)c4C)-n4c(C)nnc43)n2)C(C)(C)C)cc1 [Example 91]	< 5%
< 0.01 µM	Cc1ncsc1-c1ccc(CNC(=O)[C@@H]2C[C@@H](O)CN2C(=O)[C@@H](NC(=O)CCc2cccc(OCCNC(=O)C[C@@H]3N=C(c4ccc(Cl)cc4)c4c(sc(C)c4C)-n4c(C)nnc43)c2)C(C)(C)C)cc1 [Example 84]	100%
0.1 to 1 µM	Cc1ncsc1-c1ccc(CNC(=O)[C@@H]2C[C@@H](O)CN2C(=O)[C@@H](NC(=O)COCCN2CCN(c3ccc([C@@H](C)NC(=O)C[C@@H]4N=C(c5ccc(Cl)cc5)c5c(sc(C)c5C)-n5c(C)nnc54)cc3)CC2)C(C)(C)C)cc1 [Example 59]	95%
